Molecules are shown by their SMILES. “Also recorded” adds a separate entry of the source. Peptide text beside a SMILES is read from it. * marks the point of attachment. X1 = NC(=O)C12CC3CC(CC(N*)(C3)C1)C2

For assay [1], the system named is normal adult mice. In words: Spatial reference memory task in the water maze. Format: in vivo. Here is the method:
(§1) For the compound treatment, mice (8 animals/group) received subcutaneous implants of extended release depot pellets containing P21 or P22 at 25 nmol/day for 35 days of continuous dosing (Innovative Research of America, USA). For the control group (8 animals), pellets consisted of the carrier polymer only. Mice were anesthetized with 2.5% Avertin (0.38 ml for a 25 g animal). Under sterile conditions, pellets were implanted subcutaneously along the anterolateral aspect of the right shoulder with a precision trochar (Innovative Research of America). After recovery of anesthesia, animals were transferred to the animal colony. No complications associated with the implantation and treatment were observed. All procedures on animals were conducted in accordance with approved protocols from our Institutional Animal Welfare Committee.
Spatial reference learning and memory were evaluated in the water maze using a procedure adapted from that previously described by Morris et al. (Morris, R. G., et al. Nature 297 (1982): 681-3). The test required that mice used a spatial navigational strategy based on a spatial representation of the environment to find a fixed submerged escape platform. The procedure was performed in a 180 cm diameter circular tank. The pool was filled with water (21±1° C.) made opaque by adding white non-toxic paint. Acquisition started with the escape platform (15 cm diameter submerged 1 cm below water surface) in the Northwest quadrant and each animal was given 90 s to find the platform. […] At the end of each trial, the mouse was left on the platform for 20 seconds, then dried and returned to its home cage until the next trial. Five such acquisition trials were given on each day for four consecutive days. A test for retention, or probe trial (PT), was given 24 hours later. During the probe trial the mouse was allowed to swim in the tank without the escape platform for 60 seconds. This was followed by second and third probe trials 15 and 30 days after the first probe trial.
The measures of learning were the time and distance covered to reach the escape platform. For the probe trial, the tank was divided into four imaginary quadrants and a small zone where the escape platform had been. The measure of retention was calculated as the ratio of time spent or distance covered in target quadrant over that in the three other quadrants.
Mouse behavior in the water maze was monitored by a Samsung Digital Camera (SDC 4304) mounted to the ceiling and tracked and timed by a SMART (Pan Lab/San Diego Instruments) version 2.0.14 software.

For assay [2], the system named is LIF-induced STAT3 phosphorylation at Tyr705 in HepG2 cells. As to the kind of experiment: LIF-induced STAT3 phosphorylation in HepG2 cells (Western blot). Conditions: 15 min. Format: cell-based, human. On the procedure:
HepG2 cells were treated with different concentrations of P21 together with 0.25 nM LIF for 15 min, and then the STAT3 phosphorylation at Tyr705 (pY-STAT3) was determined by Western blots. The pY-STAT3 value was normalized to total STAT3 expression. Data are presented as percentages of the value from cells treated with 0.25 nM LIF alone (100%). *p<0.05; **p<0.01.
To investigate the molecular mechanism of action of compound P21 in LIF signaling, HepG2 human hepatoma cell (ATCC, USA) at 80% confluence were treated with different concentrations of P21 and with 0.25 nM LIF (Peprotec, Inc., USA) for 15 min. The cells were lysed and subjected to Western blots developed with antibodies anti-phospho-Tyr 705 STAT3 and anti-STAT3 (Cell signaling Technology, USA).
To investigate whether P21 affects LIF signaling pathway, HepG2 cells were treated with different concentrations of P21 from 0.01 to 1000 nM along with 0.25 nM LIF for 15 min, and then measured STAT3 phosphorylation by Western blots. […] In HepG2 cells, 10 nM of P21 inhibited ˜30% of LIF-induced phosphorylation of STAT3 (p<0.005, student t-test; FIG. 15).
On the technique in general: A western blot detects proteins with antibodies after separation by electrophoresis.

The subject of assay [3] is adult hippocampal progenitors in the dentate gyrus. In words: Neurogenesis in the DG (BrdU-positive and BrdU/NeuN-double-positive cells). The format is in vivo, mice. Conditions: 25 nmol/day for 35 days. Here is the method:
as §1
To investigate neurogenesis, BrdU (Sigma, USA) was given as two daily i.p. injections (100 mg/kg/dose) for five days starting on day 2 of compounds treatment.
At the end of the behavioral experiment, animals were anesthetized with an overdose of sodium pentobarbital (120 mg/kg) and transcardially perfused with 0.1 M phosphate buffered saline (PBS). After perfusion, the brains were removed from the skull, the left hemisphere was immediately frozen for future biochemical analysis and the right hemisphere was immersion fixed in 4% paraformaldehyde in 0.1 M PBS for at least 24 hours at room temperature. Tissues were equilibrated and stored in 30% sucrose solution at 4° C. until sectioning. The brains were sectioned sagittaly on a freezing sliding microtome at 40 μm through the entire hippocampus and the sections were stored in glycol anti-freeze solution (Ethylene glycol, glycerol and 0.1 M PBS in 3:3:4 ratio) at −20° C. until further processing.
For double labeling of BrdU and NeuN, brain sections were pretreated with 2 M HCl at 37° C. for 30 min and neutralized with 0.1 M borate buffer (pH 8.5) for 10 minutes. […]
Neurogenesis in the dentate gyrus was evaluated by counting the number of BrdU-positive and BrdU/NeuN-double-positive cells in the dentate gyrus (DG). The number of positive cells was determined in every fifth section in a series of 40 μm sagittal sections throughout the DG using unbiased sterology. All BrdU-positive cells in the subgranular zone (SGZ) and granule cell layer (GCL) were counted using a fluorescent microscope (Nikon Eclipse 90i, Nikon Corporation, Japan). Double labeled cells were assessed by a confocal imaging system (D-Eclipse C1, Nikon Corporation). […] For each brain, at least 100 cells were counted based on coefficient of error determinations.

With `CC(=O)N[C@@H](CC(=O)O)C(=O)NCC(=O)NCC(=O)N[C@@H](CC(C)C)C(=O)NC12CC3CC(C1)CC(C(N)=O)(C3)C2` [Peptide P21, Ac-DGGL^AG-NH2] (Ac-DGGL-X1), the “time in the target quadrant, probe trials PT2 and PT3” value in assay [1] (15 and 30 days after the end of the treatment) is given as “beneficial effect disappeared; also recorded: showed no effect”. In addition, in assay [1] (24 hours after last day of training), the “time in the target quadrant, first probe trial” value is on record as “focus significantly more on the target quadrant; also recorded: improved performance in the first probe trial”. For the same molecule, the “escape latencies to reach the submerged platform (learning)” value in assay [1] (training day 2 to 4, compared to control group) is on record as “significantly reduced; also recorded: increased performance in the learning of spatial memory task”. Moreover, the “inhibition of LIF-induced phosphorylation of STAT3” value in assay [2] (10 nM P21, 0.25 nM LIF) is recorded as around 30%. Moreover, in assay [2] (0.01 to 1000 nM P21, 0.25 nM LIF), the “LIF-induced STAT3 phosphorylation, concentration dependence” value is recorded as “dose-dependent manner; also recorded: inhibited slightly in a dose-dependent manner”. In assay [3], the “BrdU positive cells in the DG (GCL and SGZ)” value is “significantly increased; also recorded: significant increase”; the “BrdU/NeuN positive cells in the DG (GCL)” value is reported as “significantly increased; also recorded: significant increase”.
